Measurements: patent US11970497B2, “Tricyclic AKR1C3 dependent KARS inhibitors” (Novartis AG, priority 2019, dated 2024)

Experiments:
[1] = tested on: H460 (NRF2 pathway mutant cell line with high AKR1C3 expression); experiment: In vitro cell proliferation assay (CellTiter-Glo), H460; type: cell-based; details: Homo sapiens, NCI-H460, 72 h; H460 cells, 3 days, CellTiter-Glo, top concentration 10 μM; read-out: H460 Qualified absolute AC50
Source text: (§1) Cellular Proliferation Assay to Assess Compounds Activity in H460 (NRF2 Pathway Mutant Cell Line with High AKR1C3 Expression) and Hara (NRF2 Pathway Wild Type Cell Line with Low AKR1C3 Expression).
(§2) The cell lines A549 and H460 are NRF2 pathway mutant and specifically contain genetic alterations in KEAP1 (A549: G333C, H460: D236H) (Singh A. et al., 2006 PLoS Medicine 3(10) e420). In these cell lines the NRF2 pathway is constitutively active and these cells express high levels of NRF2 protein and NRF2 pathway target gene AKR1C3. […] They have low AKR1C3 expression.
(§3) In Vitro Cell Proliferation Assay
(§4) Day 1, for H460 800 cells/well or 40 μL of 2×10^4 cells/mL and for Hara 2000 cells/well or 40 μL of 5×10^4 cells/mL medium (RPMI-1640 supplemented with 10% fetal bovine serum and 1% penicillin/streptomycin) were seeded into 384-well tissue culture plates. Day 2, compounds were serially diluted 1:5 to generate 8 point dose response curves and added to cells for a final top concentration of 10 μM. DMSO (1%) control and MG132 (30 μM) controls are added in columns 23 and 24 respectively on each plate for positive and negative control. After incubation for 3 days at 37° C./5% CO2, 30 μl of CellTiter-Glo reagent (Promega) was added and the plates were incubated for 10 min on plate shaker. The amount of luminescence was determined using a Perkin Elmer Envision plate reader. CellTiter-Glo luminescence values of cells treated with DMSO and MG132 controls were used to normalize the data and calculate percentage activity and AC50s of compounds using the Helios Software suite.

[2] = tested on: Hara (NRF2 pathway wild type cell line with low AKR1C3 expression); experiment: In vitro cell proliferation assay (CellTiter-Glo), Hara; type: cell-based; details: 72 h; Hara cells, 3 days, CellTiter-Glo, top concentration 10 μM; read-out: HARA Qualified absolute AC50
Source text: as §1, §2, §3, §4

Nc1ccc(CNC(=O)N2CCC3(CC2)CC(=O)c2cc(F)ccc2N3)c(F)c1F [Example 57, N-(4-amino-2,3-difluorobenzyl)-6′-fluoro-4′-oxo-3′,4′-dihydro-1′H-spiro[piperidine-4,2′-quinoline]-1-carboxamide]
AC50 [1]: 170 nM | AC50 [2]: > 10000 nM

O=C1CC2(CCN(C(=O)NCc3cc(NCCO)c(F)cc3F)CC2)Nc2ccc(F)cc21 [Example 77, N-(2,4-difluoro-5-((2-hydroxyethyl)amino)benzyl)-6′-fluoro-4′-oxo-3′,4′-dihydro-1′H-spiro[piperidine-4,2′-quinoline]-1-carboxamide]
AC50 [1]: 311 nM | AC50 [2]: > 10000 nM

CN(C)c1cccc(CNC(=O)N2CCC3(CC2)CC(=O)c2cc(F)cc(F)c2N3)n1 [Example 66, N-((6-(dimethylamino)pyridin-2-yl)methyl)-6′,8′-difluoro-4′-oxo-3′,4′-dihydro-1′H-spiro[piperidine-4,2′-quinoline]-1-carboxamide]
AC50 [1]: 223 nM | AC50 [2]: > 10000 nM

O=C1CC2(CCN(C(=O)NCc3ccc4cc[nH]c4c3)CC2)Nc2ccc(F)cc21 [Example 120, N-((1H-indol-6-yl)methyl)-6′-fluoro-4′-oxo-3′,4′-dihydro-1′H-spiro[piperidine-4,2′-quinoline]-1-carboxamide]
AC50 [1]: 1050 nM | AC50 [2]: > 10000 nM

O=C1CC2(CCN(C(=O)NCc3cc(OCCO)c(F)cc3F)CC2)Nc2ccc(F)cc21 [Example 71, N-(2,4-difluoro-5-(2-hydroxyethoxy)benzyl)-6′-fluoro-4′-oxo-3′,4′-dihydro-1′H-spiro[piperidine-4,2′-quinoline]-1-carboxamide]
AC50 [1]: 265 nM | AC50 [2]: > 10000 nM

COCCN1c2ccc(F)cc2C(=O)CC12CCN(C(=O)NCc1ccc(F)cc1)CC2 [Example 14, 6′-fluoro-N-(4-fluorobenzyl)-1′-(2-methoxyethyl)-4′-oxo-3′,4′-dihydro-1′H-spiro[piperidine-4,2′-quinoline]-1-carboxamide]
AC50 [1]: 29 nM | AC50 [2]: 795 nM

Nc1ccc(CNC(=O)N2CCC3(CC2)CC(=O)c2cc(F)ccc2N3)cc1 [Example 89, N-(4-aminobenzyl)-6′-fluoro-4′-oxo-3′,4′-dihydro-1′H-spiro[piperidine-4,2′-quinoline]-1-carboxamide]
AC50 [1]: 436 nM | AC50 [2]: > 10000 nM

Cc1occc1CNC(=O)N1CCC2(CC1)CC(=O)c1cc(F)cc(F)c1N2 [Example 10, 6′,8′-difluoro-N-((2-methylfuran-3-yl)methyl)-4′-oxo-3′,4′-dihydro-1′H-spiro[piperidine-4,2′-quinoline]-1-carboxamide]
AC50 [1]: 21 nM | AC50 [2]: 5410 nM

NC(=O)Cc1cc(CNC(=O)N2CCC3(CC2)CC(=O)c2cc(F)ccc2N3)ccc1F [Example 103, N-(3-(2-amino-2-oxoethyl)-4-fluorobenzyl)-6′-fluoro-4′-oxo-3′,4′-dihydro-1′Hspiro[piperidine-4,2′-quinoline]-1-carboxamide]
AC50 [1]: 558 nM | AC50 [2]: > 10000 nM

Cc1ccc(CNC(=O)N2CCC3(CC2)CC(=O)c2cc(F)cc(F)c2N3)s1 [Example 123, 6′,8′-difluoro-N-((5-methylthiophen-2-yl)methyl)-4′-oxo-3′,4′-dihydro-1′H-spiro[piperidine-4,2′-quinoline]-1-carboxamide]
AC50 [1]: 1140 nM | AC50 [2]: 5390 nM

Nc1ccc(CNC(=O)N2CCC3(CC2)CC(=O)c2cc(F)ccc2N3)c(Cl)c1 [Example 111, N-(4-amino-2-chlorobenzyl)-6′-fluoro-4′-oxo-3′,4′-dihydro-1′H-spiro[piperidine-4,2′-quinoline]-1-carboxamide]
AC50 [1]: 733 nM | AC50 [2]: > 10000 nM

CCN1c2ccc(F)cc2C(=O)CC12CCN(C(=O)NCc1ccc(F)c(NCCO)c1F)CC2 [Example 75, N-(2,4-difluoro-3-((2-hydroxyethyl)amino)benzyl)-1′-ethyl-6′-fluoro-4′-oxo-3′,4′-dihydro-1′H-spiro[piperidine-4,2′-quinoline]-1-carboxamide]
AC50 [1]: 306 nM | AC50 [2]: > 10000 nM

C[C@H](O)CNC(=O)c1cc(CNC(=O)N2CCC3(CC2)CC(=O)c2cc(F)ccc2N3C)ccc1F [Example 117, (S)-6′-fluoro-N-(4-fluoro-3-((2-hydroxypropyl)carbamoyl)benzyl)-1′-methyl-4′-oxo-3′,4′-dihydro-1′H-spiro[piperidine-4,2′-quinoline]-1-carboxamide]
AC50 [1]: 956 nM | AC50 [2]: > 10000 nM

O=C1CC2(CCN(C(=O)NCc3ccc(F)cc3C(F)(F)F)CC2)Nc2ccc(F)cc21 [Example 67, 6′-fluoro-N-(4-fluoro-2-(trifluoromethyl)benzyl)-4′-oxo-3′,4′-dihydro-1′H-spiro[piperidine-4,2′-quinoline]-1-carboxamide]
AC50 [1]: 225 nM | AC50 [2]: 2300 nM

O=C1CC2(CCN(C(=O)NCc3cc[nH]n3)CC2)Nc2ccc(F)cc21 [Example 47, N-((1H-pyrazol-3-yl)methyl)-6′-fluoro-4′-oxo-3′,4′-dihydro-1′H-spiro[piperidine-4,2′-quinoline]-1-carboxamide]
AC50 [1]: 106 nM | AC50 [2]: > 10000 nM

Nc1ccc(CNC(=O)N2CCC3(CC2)CC(=O)c2cc(F)ccc2N3)cc1C(F)(F)F [Example 112, N-(4-amino-3-(trifluoromethyl)benzyl)-6′-fluoro-4′-oxo-3′,4′-dihydro-1′H-spiro[piperidine-4,2′-quinoline]-1-carboxamide]
AC50 [1]: 783 nM | AC50 [2]: > 10000 nM

O=C1CC2(CCN(C(=O)NCc3ccc(F)c(CO)c3)CC2)Nc2c(F)cc(F)cc21 [Example 132, 6′,8′-difluoro-N-(4-fluoro-3-(hydroxymethyl)benzyl)-4′-oxo-3′,4′-dihydro-1′H-spiro[piperidine-4,2′-quinoline]-1-carboxamide]
AC50 [1]: 1720 nM | AC50 [2]: > 10000 nM

O=C1CC2(CCN(C(=O)NCc3ccc(O)cc3)CC2)Nc2ccc(F)cc21 [Example 39, 6′-fluoro-N-(4-hydroxybenzyl)-4′-oxo-3′,4′-dihydro-1′H-spiro[piperidine-4,2′-quinoline]-1-carboxamide]
AC50 [1]: 82 nM | AC50 [2]: > 10000 nM

CNC(=O)c1cc(CNC(=O)N2CCC3(CC2)CC(=O)c2cc(F)ccc2N3)ccc1F [Example 64, 6′-fluoro-N-(4-fluoro-3-(methylcarbamoyl)benzyl)-4′-oxo-3′,4′-dihydro-1′H-spiro[piperidine-4,2′-quinoline]-1-carboxamide]
AC50 [1]: 222 nM | AC50 [2]: > 10000 nM

CN(C)CCNC(=O)c1cc(CNC(=O)N2CCC3(CC2)CC(=O)c2cc(F)ccc2N3)ccc1F [Example 81, N-(3-((2-(dimethylamino)ethyl)carbamoyl)-4-fluorobenzyl)-6′-fluoro-4′-oxo-3′,4′-dihydro-1′H-spiro[piperidine-4,2′-quinoline]-1-carboxamide]
AC50 [1]: 352 nM

Cc1cc(CNC(=O)N2CCC3(CC2)CC(=O)c2cc(F)ccc2N3)c(C(F)(F)F)o1 [Example 127, 6′-fluoro-N-((5-methyl-2-(trifluoromethyl)furan-3-yl)methyl)-4′-oxo-3′,4′-dihydro-1′H-spiro[piperidine-4,2′-quinoline]-1-carboxamide]
AC50 [1]: 1430 nM

O=C(NCC(=O)C1CC1)c1cc(CNC(=O)N2CCC3(CC2)CC(=O)c2cc(F)ccc2N3)ccc1F [Example 100, N-(3-((2-cyclopropyl-2-oxoethyl)carbamoyl)-4-fluorobenzyl)-6′-fluoro-4′-oxo-3′,4′-dihydro-1′H-spiro[piperidine-4,2′-quinoline]-1-carboxamide]
AC50 [1]: 518 nM

O=C1CC2(CCN(C(=O)NCc3cn[nH]c3)CC2)Nc2ccc(F)cc21 [Example 37, N-((1H-pyrazol-4-yl)methyl)-6′-fluoro-4′-oxo-3′,4′-dihydro-1′H-spiro[piperidine-4,2′-quinoline]-1-carboxamide]
AC50 [1]: 81 nM

Nc1ccc(CNC(=O)N2CCC3(CC2)C[C@@H](O)c2cc(F)ccc2N3)cc1F (single isomer, unassigned) [Example 170a]
AC50 [1]: 11 nM

Cc1cc(CNC(=O)N2CCC3(CC2)CC(=O)c2cc(F)ccc2N3)c(C)o1 [Example 110, N-((2,5-dimethylfuran-3-yl)methyl)-6′-fluoro-4′-oxo-3′,4′-dihydro-1′H-spiro[piperidine-4,2′-quinoline]-1-carboxamide]
AC50 [1]: 700 nM

CN1c2ccc(F)cc2C(=O)CC12CCN(C(=O)NCc1ccc(F)c(NCC3COCCO3)c1)CC2 (stereo not shown) [Example 31, N-(3-(((1,4-dioxan-2-yl)methyl)amino)-4-fluorobenzyl)-6′-fluoro-1′-methyl-4′-oxo-3′,4′-dihydro-1′H-spiro[piperidine-4,2′-quinoline]-1-carboxamide]
AC50 [1]: 64 nM

Cc1ccc(CNC(=O)N2CCC3(CC2)CC(=O)c2cc(F)ccc2N3C)o1 [Example 7, 6′-fluoro-1′-methyl-N-((5-methylfuran-2-yl)methyl)-4′-oxo-3′,4′-dihydro-1′H-spiro[piperidine-4,2′-quinoline]-1-carboxamide]
AC50 [1]: 10 nM
